Measurements as given in patent publication US6863898B2, “Method and composition for treating hairy hoof warts” (priority 2002, dated 2005).

Tested on: hairy hoof warts
Assay: Footwrap application of aspirin compositions to infected hoofs of cows with hairy hoof warts
Type: in vivo
Conditions: topical; for healing of hairy hoof wart infections (result in words): 23 cubic centimeters in a footwrap left on the hoof about fourteen days
Description: In testing the method of the subject invention on cows with hairy hoof warts, an aspirin composition (100% aspirin powder) was administered to the infected hoof by incorporating the aspirin into a conventional footwrap and wrapping the footwrap about an animal's hoof so that the aspirin was applied to an infected area of an animal's hoof. The aspirin composition of the subject invention that includes about 75% by weight aspirin powder, about 5% by weight hydrated lime, about 15% by weight sodium bentonite, and about 5% by weight chalk was also tested in the same manner. With the application of the aspirin compositions to the infected hoof areas by this method, the infection progressively diminished and the hairy hoof warts were typically healed within about fourteen days. In the method of the subject invention for treating anchor preventing hairy hoof warts, an aspirin composition of 100% aspirin, a composition of another compound or derivative of salicylic acid of 100% of the other compound or derivative, an aspirin containing composition, or a composition containing another compound or derivative of salicylic acid is administered in an effective amount to an infected area of an animal's hoof or, as a preventive measure, to an area of an animal's hoof that could be infected. In a preferred embodiment of the method of the subject invention, the composition of or containing aspirin or another compound or derivative of salicylic acid is incorporated into a conventional footwrap, such as but not limited to a footwrap sold by Minnesota Mining and Manufacturing under the trade designation “[…]”. The footwrap is then applied to an animal's hoof with the composition being applied to the infected area of the hoof or, as a preventive measure, to an area of potential hoof infection. […]

Structure (SMILES): CC(=O)Oc1ccccc1C(=O)O [100% aspirin powder, aspirin]
- healing of hairy hoof wart infections (result in words) (listed as 100% powdered aspirin composition): successful in healing even severe hairy hoof wart infections
- healing of hairy hoof wart infections (result in words) (listed as aspirin composition of 100% aspirin): appeared to achieve the best results
- time until the hairy hoof warts were healed (composition in a conventional footwrap on the infected hoof area, typical value): fourteen
